Experimental data from PMC5755953, “Identification of Allosteric Modulators of Metabotropic Glutamate 7 Receptor Using Proteochemometric Modeling” (Journal of Chemical Information and Modeling, 2017).

Assays:
mGlu7 [1] = system: mGlu7; design: method as in PMID 16339898; conditions: known reference compound, agonist/PAM; cited from earlier work
mGlu7 [2] = system: mGlu7; design: method as in PMID 17609420; conditions: known reference compound, allosteric antagonist/NAM; cited from earlier work
mGlu7 receptor = target: T1, mGlu7 receptor (Homo sapiens, UniProt Q14831); test: mGlu7 PAM assay (Ca2+ response, concentration response); type: cell-based; conditions: confirmed hits of virtual screening; for EC50: concentration response, read-out: mGlu7 PAM pEC50 (converted)
T1 construct: expressed in transfected cells; host or cells: HEK 293 cells

mGlu1 to mGlu8 receptor = test: mGlu receptor panel selectivity assays (activation or inactivation); type: cell-based; conditions: up to concentration cutoffs of 10 μM
Procedure: Active hits from the VS were sourced from the Janssen corporate compound collection, no new synthesis was performed at this time, and batch purity information is provided in the Supporting Information (Table S5). The selectivity of the hits 1 to 4 was assessed by in vitro screening in the same panel of mGlu1 to mGlu8 receptor activation or inactivation assays.
(§1) Method for selectivity assays mGlu receptor panel selectivity assays: Ca2+ assays with human mGlu1, 3, 5, 7, or 8 receptor expressing HEK 293 cells were performed as reported in Lavreysen et al. (2013), except for a slight change in the procedure for mGlu5: cells expressing the human mGlu5 receptor were seeded at 40,000 cells/well in MW384. TwentyEfour hours after seeding, cells were incubated for 90 min in Ca2+ assay kit (Molecular Devices) dissolved in saline PBS supplemented with 5 mmol/L probenecid, pH 7.4 (f.c. 2.5 mmol/L probenecid as loading buffer was added on the cell layer without removal of medium) before measurements. Measurement of [35S]GTPγS binding to membranes from CHO cells expressing the rat mGlu6 receptor and membranes from L929sA cells expressing the human mGlu4 receptor were conducted also as described in Lavreysen et al.
(§2) Lavreysen H, et al. Pharmacological Characterization of JNJE40068782, a New Potent, Selective, and Systemically Active Positive Allosteric Modulator of the mGlu2 Receptor and Its

mGlu4 = target: T2, mGlu4 (Homo sapiens, UniProt Q14833); test: mGlu4 agonism assay ([35S]GTPγS binding to membranes); type: biochemical; conditions: selectivity panel; read-out: pEC50 in mGlu4 agonism assay (converted)
T2 construct: expressed in transfected cells; host or cells: L929sA cells (membranes)
Procedure: as §1, §2

T1 sequence (Q14831 35-915): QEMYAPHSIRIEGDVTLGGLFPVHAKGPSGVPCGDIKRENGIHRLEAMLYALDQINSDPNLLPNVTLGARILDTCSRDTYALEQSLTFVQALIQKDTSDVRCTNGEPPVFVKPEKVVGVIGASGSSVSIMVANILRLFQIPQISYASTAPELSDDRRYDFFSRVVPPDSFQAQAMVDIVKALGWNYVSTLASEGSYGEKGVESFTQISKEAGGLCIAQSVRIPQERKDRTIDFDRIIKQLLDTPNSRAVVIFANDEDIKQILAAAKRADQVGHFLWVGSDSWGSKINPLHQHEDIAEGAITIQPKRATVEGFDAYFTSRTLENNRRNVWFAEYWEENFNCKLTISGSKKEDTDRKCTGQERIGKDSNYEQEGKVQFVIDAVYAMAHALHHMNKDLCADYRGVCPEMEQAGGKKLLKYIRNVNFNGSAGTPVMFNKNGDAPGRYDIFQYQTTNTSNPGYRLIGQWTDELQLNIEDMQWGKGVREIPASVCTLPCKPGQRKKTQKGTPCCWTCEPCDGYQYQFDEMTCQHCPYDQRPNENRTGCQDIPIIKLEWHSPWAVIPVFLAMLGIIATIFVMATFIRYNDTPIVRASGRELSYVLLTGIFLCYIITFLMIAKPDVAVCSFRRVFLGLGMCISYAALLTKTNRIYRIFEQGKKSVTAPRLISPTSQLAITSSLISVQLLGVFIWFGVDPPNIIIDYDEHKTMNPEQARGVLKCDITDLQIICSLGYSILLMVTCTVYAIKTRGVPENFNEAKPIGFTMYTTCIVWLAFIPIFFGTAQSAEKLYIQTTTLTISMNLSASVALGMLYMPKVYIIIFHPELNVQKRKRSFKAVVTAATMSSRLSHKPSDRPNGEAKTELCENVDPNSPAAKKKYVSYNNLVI
T2 sequence (Q14833 33-912): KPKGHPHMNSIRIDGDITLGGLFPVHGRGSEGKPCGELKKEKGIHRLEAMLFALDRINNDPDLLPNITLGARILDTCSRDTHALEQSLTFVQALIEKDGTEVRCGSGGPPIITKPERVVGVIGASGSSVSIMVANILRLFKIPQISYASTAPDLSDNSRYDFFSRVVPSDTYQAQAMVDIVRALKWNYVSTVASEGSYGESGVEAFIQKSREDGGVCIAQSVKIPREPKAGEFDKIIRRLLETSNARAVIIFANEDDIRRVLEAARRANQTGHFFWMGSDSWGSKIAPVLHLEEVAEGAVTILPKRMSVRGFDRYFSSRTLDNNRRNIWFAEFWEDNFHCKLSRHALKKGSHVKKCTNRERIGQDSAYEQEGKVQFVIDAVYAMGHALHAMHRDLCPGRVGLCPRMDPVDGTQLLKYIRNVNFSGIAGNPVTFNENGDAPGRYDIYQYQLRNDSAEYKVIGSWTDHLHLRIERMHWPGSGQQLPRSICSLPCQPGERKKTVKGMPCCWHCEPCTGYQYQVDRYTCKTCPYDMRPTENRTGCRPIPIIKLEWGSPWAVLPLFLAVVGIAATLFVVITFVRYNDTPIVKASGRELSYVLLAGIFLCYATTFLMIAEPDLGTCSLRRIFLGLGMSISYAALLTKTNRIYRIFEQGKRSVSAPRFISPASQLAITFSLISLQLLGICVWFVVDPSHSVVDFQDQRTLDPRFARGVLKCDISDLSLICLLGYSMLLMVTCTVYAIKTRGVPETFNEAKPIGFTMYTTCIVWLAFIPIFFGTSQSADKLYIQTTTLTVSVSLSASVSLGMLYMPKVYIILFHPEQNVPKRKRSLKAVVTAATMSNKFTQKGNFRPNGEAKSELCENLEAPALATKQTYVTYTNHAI

Emax (mGlu7 receptor) | EC50 (mGlu7 receptor) | SMILES | activity in panel of mGlu1 to mGlu8 receptor activation or inactivation assays (mGlu1 to mGlu8 receptor) | further results
57% | 31.6 µM | CC(C)(C)OC(=O)N1CCc2ccc(-n3cc(-c4ccncc4)cn3)cc2CC1 [compound 4] | No activity | –
99% | 15.8 µM | COc1ccc(CN2CCc3c(nc(N4CCC(C)CC4)[nH]c3=O)C2)cc1 [compound 5] | – | –
65% | > 30.2 µM | CC1CCN(c2nc(-c3ccncc3)nc3cnccc23)CC1 [compound 6] | – | –

The next lines start with the compound.

SMILES | Emax (mGlu7 receptor) | EC50 (mGlu7 receptor) | activity in panel of mGlu1 to mGlu8 receptor activation or inactivation assays (mGlu1 to mGlu8 receptor) | further results
c1ccc(C(NCCNC(c2ccccc2)c2ccccc2)c2ccccc2)cc1 [AMN-082] | – | – | – | PAM activity reported in cAMP and Ca2+ assays (mGlu7 [1]): Active PAM reported in cAMP but not Ca2+ assays
COc1ccc(-c2cc3onc(-c4ccncc4)c3c(=O)n2C)cc1 [MMPIP] | – | – | – | mGlu7-ant pIC50 (mGlu7 [2]): 7
COc1cc(F)cc(COc2ccc(C(=O)N[C@H](C)C(C)(C)C)cn2)c1 [compound 1] | 86% | 12.6 µM | No activity | –
COc1c(F)cccc1COc1ccc(C(=O)N[C@H](C)C(C)(C)C)cn1 [compound 2] | 103% | 12.6 µM | No activity | –
CNC(=O)N1CCCC(CN2CCC(OC(c3ccccc3)c3ccccc3)CC2)C1 (stereo not shown) [compound 3] | – | – | – | EC50 (mGlu4): 0.631 µM
